This note sets out measurements from patent publication US8461183B2, “PPAR agonist compounds, preparation and uses” (Genfit, priority 2008, dated 2013).

Molecules are shown by their SMILES.

What all share (type): cell-based
For one test, the target named is T1, hPPARδ (Homo sapiens, UniProt Q03181).
T1 construct: corresponding to the DEF domains (structural elements of the promoter of the PPARs: D=hinge, EF=ligand fixation domain and AF2 fixation site); expressed in transfected cells; host or cells: COS-7 (monkey kidney fibroblasts)
T1 sequence (Q03181 211-439 limits assumed): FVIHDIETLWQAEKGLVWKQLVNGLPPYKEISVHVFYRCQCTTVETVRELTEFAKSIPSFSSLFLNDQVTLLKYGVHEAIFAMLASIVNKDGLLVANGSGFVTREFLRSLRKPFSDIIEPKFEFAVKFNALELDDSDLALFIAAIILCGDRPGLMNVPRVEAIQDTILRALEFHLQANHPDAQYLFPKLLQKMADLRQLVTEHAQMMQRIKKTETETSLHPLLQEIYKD
As to the kind of experiment: Gal4-hPPARδ chimera transactivation (luciferase) in COS-7 cells. Particulars: COS-7 cells, Gal4-hPPARδ, 24 hours; for EC50: luciferase, read-out: PPARδ EC50; for Emax: relative to maximum activation obtained with GW501516, read-out: PPARδ TOP % (maximum activation). The method, then:
(§1) Activation of PPARs is evaluated in vitro on a line of monkey kidney fibroblasts (COS-7) by measuring the transcriptional activity of chimeras consisting of the DNA binding domain of Gal4 transcription factor of yeast and of the ligand binding domain of the various PPARs of human origin (hPPAR).
(§2) The COS-7 cells are from ATCC and are cultivated in DMEM medium supplemented with 10% (vol/vol) of fetal calf serum, 1% of penicillin/streptomycin (Biochrom, AG), 1% of amino acids (Gibco) and 1% of sodium pyruvate (Gibco). The cells are incubated at 37° C. in a humid atmosphere containing 5% CO2.
(§3) The plasmids Gal4(RE)_TkpGL3, pGal4-hPPARα, pGal4-hPPARγ, pGal4-hPPARδ and pGal4-φ are described in the literature (Raspe E et al., 1999). The constructs pGal4-hPPARα, pGal4-hPPARγ and pGal4-hPPARδ were obtained by cloning, into the pGal4-φ vector, DNA fragments amplified by PCR corresponding to the DEF domains (structural elements of the promoter of the PPARs: D=hinge, EF=ligand fixation domain and AF2 fixation site) of the human nuclear receptors PPAα, PPARγ and PPARδ.
(§4) The adherent COS-7 cells are transfected with 40 μg of DNA per 225 cm^2 flask, with a pGal4-hPPAR/Gal4(RE)_TkpGL3 ratio of 1/10, in the presence of 10% of fetal calf serum. The cells are then detached and seeded in the absence of serum in 384-well plates (2×10^4 cells/well) then incubated for 4 hours at 37° C. The compounds are then diluted in a 96-well plate and then transferred to the 384-well plate. Activation with the test compounds is effected for a further 24 hours at 37° C. in the presence of 1% of synthetic serum Ultroser™ (Biosepra). These last 2 stages are automated by means of a Genesis Freedom 200™ station (Tecan). At the end of the experiment, the cells are lysed and the luciferase activity is determined using the Steady-Lite™ HTS (Perkin Elmer) according to the supplier's recommendations.
(§5) The test data are summarized in Table 8-1 below, which presents, for each compound, the values of maximum activation (TOP %) and the EC50 values measured for each isoform of PPAR.

A further test concerns the target T2, hPPARα (Homo sapiens, UniProt Q07869).
T2 construct: corresponding to the DEF domains (structural elements of the promoter of the PPARs: D=hinge, EF=ligand fixation domain and AF2 fixation site); expressed in transfected cells; host or cells: COS-7 (monkey kidney fibroblasts)
T2 sequence (Q07869 239-466 limits assumed): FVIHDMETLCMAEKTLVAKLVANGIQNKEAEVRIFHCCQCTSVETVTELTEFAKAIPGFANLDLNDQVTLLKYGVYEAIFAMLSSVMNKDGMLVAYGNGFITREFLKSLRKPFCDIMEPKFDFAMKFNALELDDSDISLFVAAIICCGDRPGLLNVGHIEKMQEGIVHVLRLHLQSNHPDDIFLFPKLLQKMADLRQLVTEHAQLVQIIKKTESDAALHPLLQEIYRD
As to the kind of experiment: Gal4-hPPARα chimera transactivation (luciferase) in COS-7 cells. As to conditions: COS-7 cells, Gal4-hPPARα, 24 hours; for EC50: luciferase, read-out: PPARα EC50; for Emax: relative to maximum activation obtained with fenofibric acid, read-out: PPARα TOP % (maximum activation). The method, then:
as §1, §2, §3, §4
The test data are summarized in Table 8-1 below, which presents, for each compound, the values of maximum activation (TOP %) and the EC50 values measured for each isoform of PPAR. The values of maximum activation are expressed in percentages relative to the maximum activations obtained with reference agonists: fenofibric acid for PPARα, rosiglitazone for PPARγ and 2-methyl-4-((4-methyl-2-(4-trifluoromethylphenyl)-1,3-thiazol-5-yl)-methylsulfanyl)phenoxyacetic acid (also called GW501516) for PPARδ.

Another test addresses T3, hPPARγ (Homo sapiens, UniProt P37231).
T3 construct: corresponding to the DEF domains (structural elements of the promoter of the PPARs: D=hinge, EF=ligand fixation domain and AF2 fixation site); expressed in transfected cells; host or cells: COS-7 (monkey kidney fibroblasts)
T3 sequence (P37231 238-503 limits assumed): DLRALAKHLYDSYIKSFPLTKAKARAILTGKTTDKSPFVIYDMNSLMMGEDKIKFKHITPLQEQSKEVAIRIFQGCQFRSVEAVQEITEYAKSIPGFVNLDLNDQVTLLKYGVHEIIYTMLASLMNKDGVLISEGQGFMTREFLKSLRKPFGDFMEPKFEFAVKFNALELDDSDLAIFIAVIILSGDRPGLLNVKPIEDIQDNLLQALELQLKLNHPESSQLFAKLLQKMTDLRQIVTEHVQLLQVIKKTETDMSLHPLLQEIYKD
As to the kind of experiment: Gal4-hPPARγ chimera transactivation (luciferase) in COS-7 cells. As to conditions: 24 hours; for EC50: luciferase, read-out: PPARγ EC50; for Emax: relative to maximum activation obtained with rosiglitazone, read-out: PPARγ TOP % (maximum activation). The procedure:
as §1, §2, §3, §4, §5

As to `O=C(O)COc1ccc(OCc2ccc(-c3ccccc3)nc2OC2CCCCC2)cc1` [Cpd 18, 2-(4-((2-cyclohexyloxy-6-phenylpyridin-3-yl)methoxy)phenoxy)ethanoic acid], the EC50 at hPPARδ stood at 3.97 µM; at hPPARα, 10.7 µM; on hPPARγ, 14.2 µM. In addition, the Emax on hPPARδ came out at 97.1%; on hPPARα, 35.3%; at hPPARγ it was 26.1%.

Turning to `O=C(O)COc1ccc(OCc2ccc(-c3ccccc3)nc2N2CCCCC2)cc1` [Cpd 20, 2-(4-((6-phenyl-2-(piperidin-1-yl)pyridin-3-yl)methoxy)phenoxy)ethanoic acid], the EC50 came to 5.26 µM on hPPARδ, 14.3 µM on hPPARα and 30.2 µM at hPPARγ. Besides, the Emax on hPPARδ turned out to be 87.7%; at hPPARα, 34.2%; on hPPARγ, 43%.

`COc1nc(-c2ccc(C(F)(F)F)cc2)ccc1COc1ccc(OC(C)(C)C(=O)O)cc1` [Cpd 21, 2-(4-((2-methoxy-6-(4-(trifluoromethyl)phenyl)pyridin-3-yl)methoxy)-phenoxy)-2-methylpropanoic acid]: the EC50 was determined as 0.276 µM on hPPARδ and 1.43 µM on hPPARγ. Also, the Emax at hPPARδ amounted to 100%; on hPPARα, 70.2%; on hPPARγ it was 51.5%.

`COc1nc(-c2ccc(C(F)(F)F)cc2)ccc1CNc1ccc(SC(C)(C)C(=O)O)cc1` [Cpd 22, 2-(4-(((2-methoxy-6-(4-(trifluoromethyl)phenyl)pyridin-3-yl)methyl)amino)-phenylthio)-2-methylpropanoic acid]: the EC50 amounted to 1.15 µM at hPPARδ and 1.05 µM at hPPARγ. Further, the Emax turned out to be 102% on hPPARδ, 75.9% at hPPARα and 88.9% on hPPARγ.

With `COc1nc(-c2ccc(C(F)(F)F)cc2)ccc1CNc1ccc(SCC(=O)O)cc1` [Cpd 23, 2-(4-(((2-methoxy-6-(4-(trifluoromethyl)phenyl)pyridin-3-yl)methyl)amino)-phenylthio)ethanoic acid], the EC50 turned out to be 0.501 µM on hPPARδ, 0.044 µM on hPPARα and 2.84 µM at hPPARγ. In addition, the values for the Emax on hPPARδ, on hPPARα and on hPPARγ were 85.4%, 65.3% and 75.6%, respectively.

Turning to `O=C(O)COc1ccc(OCc2ccc(-c3ccccc3)nc2Sc2ccccc2)cc1` [Cpd 25, 2-(4-((2-phenylthio-6-(phenyl)pyridin-3-yl)methoxy)phenoxy)ethanoic acid], the EC50 at hPPARδ came to 6.38 µM; at hPPARα it was 6.96 µM; on hPPARγ, 8.29 µM. Further, the figures for the Emax at hPPARδ, on hPPARα and on hPPARγ were 71%, 53.9% and 38.3%, respectively.

`COc1ncc(-c2ccccc2)cc1CNc1ccc(SCC(=O)O)cc1` [Cpd 26, 2-(4-(((2-methoxy-5-phenylpyridin-3-yl)methyl)amino)phenylthio)ethanoic acid]: the EC50 came to 31.1 µM on hPPARδ, 20.9 µM on hPPARα and 44.1 µM on hPPARγ. Further, the Emax is 138% on hPPARδ, 67% at hPPARα and 208% on hPPARγ.

As to `COc1nc(-c2ccccc2)ccc1CNc1ccc(SC(F)(F)C(=O)O)cc1` [Cpd 27, 2-(4-(((2-methoxy-6-phenylpyridin-3-yl)methyl)amino)phenylthio)-2,2-difluoroethanoic acid], the EC50 on hPPARδ stood at 41.1 µM; on hPPARα it was 3.64 µM; at hPPARγ, 10.6 µM. Besides, the results for the Emax at hPPARδ, at hPPARα and on hPPARγ were 72.9%, 99.8% and 98.7%, respectively.

Take `COc1nc(-c2ccccc2)c(-c2ccccc2)cc1CNc1ccc(SCC(=O)O)cc1` [Cpd 28, 2-(4-(((2-methoxy-5,6-diphenylpyridin-3-yl)methyl)amino)phenylthio)ethanoic acid]: the EC50 turned out to be 25.2 µM at hPPARδ, 1.74 µM on hPPARα and 11.3 µM on hPPARγ. Besides, the Emax is 49.1% on hPPARδ, 55.4% on hPPARα and 45% at hPPARγ.

On to `COc1nc(-c2ccccc2)c(Br)cc1CNc1ccc(SCC(=O)O)cc1` [Cpd 29, 2-(4-(((2-methoxy-5-bromo-6-phenylpyridin-3-yl)methyl)amino)phenylthio)-ethanoic acid], for which the EC50 on hPPARδ was 10.1 µM; at hPPARα it was 3.85 µM; on hPPARγ it was 8.43 µM. Further, the Emax at hPPARδ stood at 85.6%; on hPPARα, 59.3%; on hPPARγ, 57.7%.

As to `COc1nc(-c2ccccc2)ccc1CNc1ccc(SC(C(=O)O)c2ccccc2)cc1` (stereo not shown) [Cpd 32, 2-(4-(((2-methoxy-6-phenylpyridin-3-yl)methyl)amino)phenylthio)-2-phenyl-acid], the EC50 on hPPARδ worked out at 22.8 µM; on hPPARα, 1.48 µM; at hPPARγ, 2.51 µM. In addition, the Emax amounted to 3.59% on hPPARδ, 70.4% at hPPARα and 66.6% on hPPARγ.

In the case of `COc1nc(-c2ccccc2)ccc1CN(C)c1ccc(CCC(=O)O)cc1` [Cpd 33, 3-(4-(((2-methoxy-6-phenylpyridin-3-yl)methyl)(methyl)amino)phenyl)-propanoic acid], the EC50 at hPPARδ is 10.5 µM; on hPPARα it was 4.55 µM; on hPPARγ, 12.4 µM. In addition, the results for the Emax on hPPARδ, at hPPARα and at hPPARγ were 74.5%, 49.9% and 65%, respectively.

In the case of `CCC(Nc1ccc(CCC(=O)O)cc1)c1ccc(-c2ccccc2)nc1OC` (stereo not shown) [Cpd 34, 3-(4-(1-((2-methoxy-6-phenylpyridin-3-yl)propyl)amino)phenyl)propanoic acid], the EC50 came out at 0.526 µM on hPPARδ, 1.42 µM at hPPARα and 2.33 µM on hPPARγ. For the same molecule, the Emax at hPPARδ turned out to be 108%; at hPPARα, 67.6%; on hPPARγ it was 80.4%.

On to `COc1nc(-c2ccccc2)ccc1CNc1cc(C)c(OCC(=O)O)c(C)c1` [Cpd 35, 2-(4-(((2-methoxy-6-phenylpyridin-3-yl)methyl)amino)-2,6-dimethyl-phenoxy)ethanoic acid], for which the results for the EC50 on hPPARδ, on hPPARα and at hPPARγ were 1.54 µM, 0.647 µM and 6.18 µM, respectively. Further, the Emax on hPPARδ was 13.2%; at hPPARα, 26.1%; at hPPARγ, 38.8%.

With `COc1nc(-c2ccccc2)ccc1CSc1ccc(CCC(=O)O)cc1` [Cpd 37, 3-(4-((2-methoxy-6-phenylpyridin-3-yl)methylthio)phenyl)propanoic acid], the EC50 at hPPARδ turned out to be 12.7 µM; at hPPARα, 9.95 µM; on hPPARγ, 9.17 µM. For the same molecule, the Emax at hPPARδ was 94.7%; on hPPARα, 65.5%; on hPPARγ, 98.5%.
